In this assay the target is T1, Aurora B (Homo sapiens, UniProt Q96GD4).
T1 construct: cell lysates from Jurkat cells (ATCC TIB-152) used; endogenous in cells; host or cells: Jurkat cells (ATCC TIB-152), treated with pervanadate
Description: Kinobeads assay, Aurora B. Type of assay: binding. The following applies: for pIC50: lysate of pervanadate-treated Jurkat cells, read-out: Inhibition values (IC50) Aur B.

pIC50: −log10 of the molar value. Some results are limits rather than exact numbers.

In general, pIC50 refers to −log10 of the IC50, conventionally taken in molar units.

T1 sequence (Q96GD4 whole entry): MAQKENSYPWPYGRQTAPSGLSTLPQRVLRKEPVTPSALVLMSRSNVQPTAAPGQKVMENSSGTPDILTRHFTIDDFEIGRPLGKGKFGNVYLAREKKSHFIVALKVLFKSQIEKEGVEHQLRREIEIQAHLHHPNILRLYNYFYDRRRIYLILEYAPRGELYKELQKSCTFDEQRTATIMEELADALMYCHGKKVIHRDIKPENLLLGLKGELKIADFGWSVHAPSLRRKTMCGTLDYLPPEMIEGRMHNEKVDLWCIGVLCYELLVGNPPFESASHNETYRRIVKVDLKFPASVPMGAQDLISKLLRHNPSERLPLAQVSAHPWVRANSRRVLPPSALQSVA

As to `CN(C)CCCn1cc(Nc2ncc3cnn(Cc4c(F)c(F)cc(N5CCOCC5)c4F)c3n2)cn1` [Example 42, N-(1-(3-(Dimethylamino)propyl)-1H-pyrazol-4-yl)-1-(2,3,6-trifluoro-5-morpholinobenzyl)-1H-pyrazolo[3,4-d]pyrimidin-6-amine], the “JAK3/AurB Fold Selectivity” value was 10-50 Fold and the pIC50 is 6.00 to 7.00.

For the molecule `CN(C)CCCn1cc(Nc2ncc3cnn(Cc4cccc(N5CCOCC5)c4F)c3n2)cn1` [Example 43, N-(1-(3-(Dimethylamino)propyl)-1H-pyrazol-4-yl)-1-(2-fluoro-3-morpholinobenzyl)-1H-pyrazolo[3,4-d]pyrimidin-6-amine], the “JAK3/AurB Fold Selectivity” value is given as more than 50 Fold and the pIC50 was 6.00 to 7.00.

Take `OCCn1cc(Nc2ncc3cnn(Cc4cc(N5CCOCC5)ccc4F)c3n2)cn1` [Example 44, 2-(4-((1-(2-Fluoro-5-morpholinobenzyl)-1H-pyrazolo[3,4-d]pyrimidin-6-yl)amino)-1H-pyrazol-1-yl)ethanol]: the “JAK3/AurB Fold Selectivity” value is on record as 10-50 Fold and the pIC50 is 6.00 to 7.00.

Regarding `OCCn1cc(Nc2ncc3cnn(Cc4c(F)c(F)cc(N5CCOCC5)c4F)c3n2)cn1` [Example 45, 2-(4-((1-(2,3,6-Trifluoro-5-morpholinobenzyl)-1H-pyrazolo[3,4-d]pyrimidin-6-yl)amino)-1H-pyrazol-1-yl)ethanol], the “JAK3/AurB Fold Selectivity” value is listed as 10-50 Fold and the pIC50 was 6.00 to 7.00.

Turning to `O=C1COCCN1c1cccc(Cn2ncc3cnc(Nc4cnn(CCO)c4)nc32)c1F` [Example 46, 4-(2-Fluoro-3-((6-((1-(2-hydroxyethyl)-1H-pyrazol-4-yl)amino)-1H-pyrazolo[3,4-d]pyrimidin-1-yl)methyl)phenyl)morpholin-3-one], the “JAK3/AurB Fold Selectivity” value is given as 10-50 Fold and the pIC50 was 6.00 to 7.00.

For the molecule `OCCn1cc(Nc2ncc3cnn(Cc4cccc(N5CCNCC5)c4)c3n2)cn1` [Example 47, 2-(4-((1-(3-(piperazin-1-yl)benzyl)-1H-pyrazolo[3,4-d]pyrimidin-6-yl)amino)-1H-pyrazol-1-yl)ethanol], the “JAK3/AurB Fold Selectivity” value is reported as 10-50 Fold and the pIC50 is 6.00 to 7.00.

Consider `c1cc(Cn2ncc3cnc(Nc4cnn(CC5CCCNC5)c4)nc32)cc(N2CCOCC2)c1` (stereo not drawn) [Example 48, 1-(3-Morpholinobenzyl)-N-(1-(piperidin-3-ylmethyl)-1H-pyrazol-4-yl)-1H-pyrazolo[3,4-d]pyrimidin-6-amine], for which the “JAK3/AurB Fold Selectivity” value is more than 50 Fold and the pIC50 was 5.00 to 6.00.

In the case of `Cn1cc(Nc2ncc3cnn(Cc4cc(F)cc(N5CCOCC5)c4)c3n2)cn1` [Example 49, 1-(3-Fluoro-5-morpholinobenzyl)-N-(1-methyl-1H-pyrazol-4-yl)-1H-pyrazolo[3,4-d]pyrimidin-6-amine], the “JAK3/AurB Fold Selectivity” value was more than 50 Fold and the pIC50 was 5.00 to 6.00.

Turning to `CN(C)CCCn1cc(Nc2ncc3cnn(Cc4cccc(N5CCOCC5=O)c4F)c3n2)cn1` [Example 50, 4-(3-((6-((1-(3-(Dimethylamino)propyl)-1H-pyrazol-4-yl)amino)-1H-pyrazolo[3,4-d]pyrimidin-1-yl)methyl)-2-fluorophenyl)morpholin-3-one], the “JAK3/AurB Fold Selectivity” value is more than 50 Fold and the pIC50 is 6.00 to 7.00.

As to `OCCn1cc(Nc2ncc3cnn(Cc4cc(F)cc(N5CCOCC5)c4)c3n2)cn1` [Example 51, 2-(4-((1-(3-Fluoro-5-morpholinobenzyl)-1H-pyrazolo[3,4-d]pyrimidin-6-yl)amino)-1H-pyrazol-1-yl)ethanol], the “JAK3/AurB Fold Selectivity” value is recorded as more than 50 Fold and the pIC50 was 6.00 to 7.00.

As to `Cn1cc(Nc2ncc3cnn(Cc4cc(F)cc(N5CCOCC5=O)c4)c3n2)cn1` [Example 52, 4-(3-Fluoro-5-((6-((1-methyl-1H-pyrazol-4-yl)amino)-1H-pyrazolo[3,4-d]pyrimidin-1-yl)methyl)phenyl)morpholin-3-one], the “JAK3/AurB Fold Selectivity” value is on record as more than 50 Fold and the pIC50 is 5.00 to 6.00.

Consider `Cn1cc(Nc2ncc3cnn(Cc4cc(N5CCOCC5=O)cc(F)c4F)c3n2)cn1` [Example 53, 4-(3,4-Difluoro-5-((6-((1-methyl-1H-pyrazol-4-yl)amino)-1H-pyrazolo[3,4-d]pyrimidin-1-yl)methyl)phenyl)morpholin-3-one], for which the “JAK3/AurB Fold Selectivity” value is more than 50 Fold and the pIC50 is 6.00 to 7.00.

On to `Cn1cc(Nc2ncc3cnn(Cc4cccc(N5CCNCC5=O)c4F)c3n2)cn1` [Example 54, 1-(2-Fluoro-3-((6-((1-methyl-1H-pyrazol-4-yl)amino)-1H-pyrazolo[3,4-d]pyrimidin-1-yl)methyl)phenyl)piperazin-2-one], for which the “JAK3/AurB Fold Selectivity” value is more than 50 Fold and the pIC50 is 5.00 to 6.00.

Consider `O=C1CNCCN1c1cccc(Cn2ncc3cnc(Nc4cnn(CCO)c4)nc32)c1F` [Example 55, 1-(2-Fluoro-3-((6-((1-(2-hydroxyethyl)-1H-pyrazol-4-yl)amino)-1H-pyrazolo[3,4-d]pyrimidin-1-yl)methyl)phenyl)piperazin-2-one], for which the “JAK3/AurB Fold Selectivity” value is 10-50 Fold and the pIC50 was 6.00 to 7.00.

For `OCCn1cc(Nc2ncc3cnn(Cc4cc(N5CCOCC5)cc(F)c4F)c3n2)cn1` [Example 56, 2-(4-((1-(2,3-Difluoro-5-morpholinobenzyl)-1H-pyrazolo[3,4-d]pyrimidin-6-yl)amino)-1H-pyrazol-1-yl)ethanol], the “JAK3/AurB Fold Selectivity” value is listed as more than 50 Fold and the pIC50 is 5.00 to 6.00.

On to `O=C1CNCCN1c1cccc(Cn2ncc3cnc(Nc4cnn(CCO)c4)nc32)c1` [Example 57, 1-(3-((6-((1-(2-Hydroxyethyl)-1H-pyrazol-4-yl)amino)-1H-pyrazolo[3,4-d]pyrimidin-1-yl)methyl)phenyl)piperazin-2-one], for which the “JAK3/AurB Fold Selectivity” value is given as 10-50 Fold and the pIC50 is 6.00 to 7.00.

Regarding `O=C1COCCN1c1cc(F)cc(Cn2ncc3cnc(Nc4cnn(CCO)c4)nc32)c1` [Example 58, 4-(3-Fluoro-5-((6-((1-(2-hydroxyethyl)-1H-pyrazol-4-yl)amino)-1H-pyrazolo[3,4-d]pyrimidin-1-yl)methyl)phenyl)morpholin-3-one], the “JAK3/AurB Fold Selectivity” value was 10-50 Fold and the pIC50 was 6.00 to 7.00.

For `O=C1COCCN1c1cc(F)c(F)c(Cn2ncc3cnc(Nc4cnn(CCO)c4)nc32)c1` [Example 59, 4-(3,4-Difluoro-5-((6-((1-(2-hydroxyethyl)-1H-pyrazol-4-yl)amino)-1H-pyrazolo[3,4-d]pyrimidin-1-yl)methyl)phenyl)morpholin-3-one], the “JAK3/AurB Fold Selectivity” value was 10-50 Fold and the pIC50 was 6.00 to 7.00.

Take `c1cc(Cn2ncc3cnc(Nc4cnn(CC5CCNC5)c4)nc32)cc(N2CCOCC2)c1` (stereo not drawn) [Example 60, 1-(3-Morpholinobenzyl)-N-(1-(pyrrolidin-3-ylmethyl)-1H-pyrazol-4-yl)-1H-pyrazolo[3,4-d]pyrimidin-6-amine]: the “JAK3/AurB Fold Selectivity” value is listed as more than 50 Fold and the negative logarithm of the IC50 (pIC50) is 5.00 to 6.00.

Take `Cn1cc(Nc2ncc3cnn(Cc4c(F)c(F)cc(N5CCOCC5=O)c4F)c3n2)cn1` [Example 61, 4-(2,4,5-Trifluoro-3-((6-((1-methyl-1H-pyrazol-4-yl)amino)-1H-pyrazolo[3,4-d]pyrimidin-1-yl)methyl)phenyl)morpholin-3-one]: the “JAK3/AurB Fold Selectivity” value was 10-50 Fold and the pIC50 was 6.00 to 7.00.

`O=C1COCCN1c1cc(F)c(F)c(Cn2ncc3cnc(Nc4cnn(CCO)c4)nc32)c1F` [Example 62, 4-(2,4,5-Trifluoro-3-((6-((1-(2-hydroxyethyl)-1H-pyrazol-4-yl)amino)-1H-pyrazolo[3,4-d]pyrimidin-1-yl)methyl)phenyl)morpholin-3-one]: the “JAK3/AurB Fold Selectivity” value is recorded as 10-50 Fold and the pIC50 is 6.00 to 7.00.

In the case of `O=C1CNCCN1c1cc(F)cc(Cn2ncc3cnc(Nc4cnn(CCO)c4)nc32)c1` [Example 63, 1-(3-Fluoro-5-((6-((1-(2-hydroxyethyl)-1H-pyrazol-4-yl)amino)-1H-pyrazolo[3,4-d]pyrimidin-1-yl)methyl)phenyl)piperazin-2-one], the “JAK3/AurB Fold Selectivity” value is on record as 3-10 Fold and the pIC50 was more than 7.00.

In the case of `Cn1cc(Nc2ncc3cnn(Cc4cc(F)cc(N5CCNCC5=O)c4)c3n2)cn1` [Example 64, 1-(3-Fluoro-5-((6-((1-methyl-1H-pyrazol-4-yl)amino)-1H-pyrazolo[3,4-d]pyrimidin-1-yl)methyl)phenyl)piperazin-2-one], the “JAK3/AurB Fold Selectivity” value is given as 10-50 Fold and the pIC50 was 6.00 to 7.00.

As to `COC1CN(c2cccc(Cn3ncc4cnc(Nc5cnn(C)c5)nc43)c2)C1` [Example 65, 1-(3-(3-Methoxyazetidin-1-yl)benzyl)-N-(1-methyl-1H-pyrazol-4-yl)-1H-pyrazolo[3,4-d]pyrimidin-6-amine], the “JAK3/AurB Fold Selectivity” value is given as more than 50 Fold and the pIC50 was 5.00 to 6.00.

For the molecule `Cn1cc(Nc2ncc3cnn(Cc4c(F)c(F)cc(N5CCNCC5)c4F)c3n2)cn1` [Example 66, N-(1-Methyl-1H-pyrazol-4-yl)-1-(2,3,6-trifluoro-5-(piperazin-1-yl)benzyl)-1H-pyrazolo[3,4-d]pyrimidin-6-amine], the “JAK3/AurB Fold Selectivity” value is listed as 3-10 Fold and the pIC50 is more than 7.00.

In the case of `Cn1cc(Nc2ncc3cnn(Cc4cccc(N5CCNCC5)c4F)c3n2)cn1` [Example 67, 1-(2-Fluoro-3-(piperazin-1-yl)benzyl)-N-(1-methyl-1H-pyrazol-4-yl)-1H-pyrazolo[3,4-d]pyrimidin-6-amine], the “JAK3/AurB Fold Selectivity” value is reported as 10-50 Fold and the pIC50 was 6.00 to 7.00.

In the case of `CNC(=O)Cn1cc(Nc2ncc3cnn(Cc4cc(F)cc(N5CCOCC5=O)c4)c3n2)cn1` [Example 68, 2-(4-((1-(3-Fluoro-5-(3-oxomorpholino)benzyl)-1H-pyrazolo[3,4-d]pyrimidin-6-yl)amino)-1H-pyrazol-1-yl)-N-methylacetamide], the “JAK3/AurB Fold Selectivity” value is given as more than 50 Fold and the pIC50 was 6.00 to 7.00.

(Values after patent US9040545B2, “Heterocyclyl pyrazolopyrimidine analogues as selective JAK inhibitors” (Cellzome Limited, priority 2010, dated 2015).)
